These results are taken from patent publication US4185152A, “Thiazolidinyl alkoxy pyridines” (Warner-Lambert Company, priority 1971, dated 1980).

Data set [1] in a line: approximate LD50 (acute toxicity, antiradiation activity table). The settings on record: mouse, in vivo, ip, mice, intraperitoneal.
Data set [2] has as its system mice exposed to X-ray or gamma ray radiation. Put plainly: antiradiation test, 30-day survival of irradiated mice. The settings on record: Mus musculus, light or radiation study, ip, i.p., 950 R cobalt-60 gamma or 825 R X-ray, read-out: Survival (30 days). The data set is classed as in vivo. An excerpt:
The compounds of the invention are new chemical compounds that are useful as pharmacological agents, especially as antiradiation agents that are active in protecting against the effects of exposure to X-ray or gamma ray radiation.
In this table, the activity of each compound is expressed in terms of the percentage of animals that survived (30 days) the exposure to radiation at the given dose. The dose given is generally the lowest dose at which a high rate of survival was obtained. Administration was by the intraperitoneal route. Except where indicated otherwise, each compound was administered as the monohydrochloride salt to a test group consisting of 15 mice. The radiation dose was either 950 Roentgens supplied by a cobalt-60 gamma ray source or 825 Roentgens from an X-ray source.

The mark [3] stands for this setting: 0.25 h, pre-irradiation time 15 min., 15 mice, monohydrochloride.
Setting [4] is: 0.5 h, pre-irradiation time 30 min., 15 mice, monohydrochloride.

Where two headings read alike, the source gives them in different places.

Consider `Brc1ccc(OCCCCCCCCN2CCSC2)nc1.Cl` [Br 8, 5-Bromo-2-{[8-(3-thiazolidinyl)octyl]oxy}-pyridine, monohydrochloride], for which the LD50 in data set [1] (monohydrochloride salt) was roughly 230 mg/kg. Also, the responders at 50 mg/kg in data set [2] (0.5 h, dose 50 mg./kg., pre-irradiation time 30 min., 15 mice, monohydrochloride) was 20%.
Regarding `Brc1ccc(OCCCN2CCSC2)nc1.Cl` [Br 3, 5-bromo-2-[3-(3-thiazolidinyl)propoxy]pyridine, monohydrochloride], in data set [1] (monohydrochloride salt), the LD50 was roughly 250 mg/kg. Further, the responders at 100 mg/kg in data set [2] (setting [3]) came out at 33%.
Take `Cl.Ic1ccc(OCCCCCN2CCSC2)nc1` [I 5, 5-Iodo-2-{[5-(3-thiazolidinyl)pentyl]oxy}-pyridine, monohydrochloride]: in data set [1] (monohydrochloride salt), the 50% lethal dose (LD50) was roughly 230 mg/kg. In addition, in data set [2] (setting [4]), the responders at 100 mg/kg amounted to 93%.
For `Cl.Ic1ccc(OCCCCCCCN2CCSC2)nc1` [I 7, 5-Iodo-2-{[7-(3-thiazolidinyl)heptyl]oxy}-pyridine, monohydrochloride], in that order: roughly 200 mg/kg and 47%.
For the compound `Cl.Cl.Clc1ccc(OCCCCCN2CCSC2)nc1` [Cl 5, 5-Chloro-2-{[5-(3-thiazolidinyl)pentyl]-oxy}pyridine, dihydrochloride], the LD50 in data set [1] (dihydrochloride salt) was roughly 160 mg/kg. For the same compound, the responders at 80 mg/kg is 87% in data set [2] (0.25 h, pre-irradiation time 15 min., 15 mice, dihydrochloride) and 93% in data set [2] (0.5 h, pre-irradiation time 30 min., 15 mice, dihydrochloride).
As for `Brc1ccc(OCCCCCN2CCSC2)nc1.Cl` [Br 5, 5-Bromo-2-{[5-(3-thiazolidinyl)pentyl]oxy}-pyridine, monohydrochloride], in data set [1] (monohydrochloride salt), the 50% lethal dose (LD50) was roughly 240 mg/kg. For the same compound, the responders at 90 mg/kg in data set [2] (0.5 h, dose 90 mg./kg., pre-irradiation time 30 min., six mice, monohydrochloride) stood at 83%. In addition, the responders at 180 mg/kg in data set [2] (0.5 h, dose 180 mg./kg., pre-irradiation time 30 min., six mice, monohydrochloride) was 100%.
As to `Cl.Ic1ccc(OCCCCN2CCSC2)nc1` [I 4, 5-iodo-2-[4-(3-thiazolidinyl)-butoxy]pyridine, monohydrochloride], the LD50 in data set [1] (monohydrochloride salt) was greater than 300 mg/kg. The responders at 100 mg/kg in data set [2] (setting [3]) stood at 20%.
As for `Cc1ccc(OCCCCCN2CCSC2)nc1` [CH3 5, 5-methyl-2-{[5-(3-thiazolidinyl)pentyl]-oxy}pyridine], in data set [1] (dihydrochloride salt), the LD50 is roughly 190 mg/kg. Besides, in data set [2] (0.5 h, dose 70 mg./kg., pre-irradiation time 30 min., 15 mice, dihydrochloride), the responders at 70 mg/kg was 33%.
